Columns and labels:
[1] = target: T1, NS5B from the BK strain (genotype 1b) (Hepatitis C virus genotype 1b, UniProt P26663); assay: Hepatitis C polymerase inhibition, NS5B BK strain, 33P-GTP filter assay; type: biochemical; conditions: Table 1B; NS5B BK strain; read-out: BK IC50
T1 construct: NS5B from the BK strain (genotype 1b) is expressed in E. coli as a protein in which the 21 C-terminal amino acids are replaced; made in house; host or cells: E. coli
How it was run: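 E. coli-expressed NS5B (BK, genotype 1b) with the 21 C-terminal residues replaced by a linker-His6 tag was preincubated with compound for 15 min at room temperature. It then extended a hairpin-primed heteropolymeric RNA (~3 nM, ~760 nt product) with α-[33P]-GTP for 2 h at 22–25° C. The reaction was stopped with EDTA, and incorporated label was counted on filters.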

[2] = target: BB7 (RNA-dependent RNA polymerase hepatitis C virus protein sequence derived from HCV replicon) (Hepatitis C virus genotype 1b, UniProt Q9WMX2); assay: Hepatitis C polymerase inhibition, BB7 sequence; type: biochemical; conditions: Table 1B
Chain of BB7 (RNA-dependent RNA polymerase hepatitis C virus protein sequence derived from HCV replicon) (Q9WMX2 2420-3010): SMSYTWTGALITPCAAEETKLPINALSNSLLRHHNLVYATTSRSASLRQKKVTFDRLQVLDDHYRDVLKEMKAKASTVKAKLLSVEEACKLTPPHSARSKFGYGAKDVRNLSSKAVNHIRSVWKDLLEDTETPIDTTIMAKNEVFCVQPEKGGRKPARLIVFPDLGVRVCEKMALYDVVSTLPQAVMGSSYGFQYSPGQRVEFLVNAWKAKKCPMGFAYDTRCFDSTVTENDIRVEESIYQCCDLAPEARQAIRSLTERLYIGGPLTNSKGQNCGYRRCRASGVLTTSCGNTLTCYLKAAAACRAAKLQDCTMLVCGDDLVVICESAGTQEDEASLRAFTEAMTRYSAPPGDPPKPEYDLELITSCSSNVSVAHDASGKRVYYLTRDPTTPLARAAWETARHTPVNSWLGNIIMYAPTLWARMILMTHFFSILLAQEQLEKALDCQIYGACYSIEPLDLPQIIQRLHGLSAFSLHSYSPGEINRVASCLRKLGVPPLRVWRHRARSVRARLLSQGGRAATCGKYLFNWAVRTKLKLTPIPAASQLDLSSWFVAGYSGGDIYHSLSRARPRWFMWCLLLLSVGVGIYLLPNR

T1 sequence (P26663 2420-2989): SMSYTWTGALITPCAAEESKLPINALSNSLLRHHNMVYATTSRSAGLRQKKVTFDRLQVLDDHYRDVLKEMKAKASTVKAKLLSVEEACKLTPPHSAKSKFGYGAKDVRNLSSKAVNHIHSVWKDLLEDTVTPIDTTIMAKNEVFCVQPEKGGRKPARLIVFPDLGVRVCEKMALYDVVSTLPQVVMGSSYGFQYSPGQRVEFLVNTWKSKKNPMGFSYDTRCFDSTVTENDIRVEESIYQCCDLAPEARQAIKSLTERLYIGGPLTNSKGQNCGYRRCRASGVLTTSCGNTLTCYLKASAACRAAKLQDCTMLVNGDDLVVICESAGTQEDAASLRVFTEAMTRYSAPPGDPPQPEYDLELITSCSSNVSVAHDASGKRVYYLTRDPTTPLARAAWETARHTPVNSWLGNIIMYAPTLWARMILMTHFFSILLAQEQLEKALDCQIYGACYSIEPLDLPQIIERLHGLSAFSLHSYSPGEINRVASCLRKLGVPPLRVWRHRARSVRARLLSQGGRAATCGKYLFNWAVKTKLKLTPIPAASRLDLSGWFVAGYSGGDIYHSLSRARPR

Row | SMILES | IC50 [1] [µM] | IC50 [2] [µM]
1 | Cc1ccc(C(F)(F)F)c2c3c([nH]c12)C(CC(=O)O)(C1CC1)OCC3 (centres unmarked) [Example 274, (1-cyclopropyl-8-methyl-5-trifluoromethyl-1,3,4,9-tetrahydropyrano[3,4-b]indol-1-yl)acetic acid] | 9.3 | > 26
2 | Cc1ccc(C(F)(F)F)c2c3c([nH]c12)C(CC(=O)O)(C1CCC1)OCC3 (centres unmarked) [Example 275, (1-cyclobutyl-8-methyl-5-trifluoromethyl-1,3,4,9-tetrahydropyrano[3,4-b]indol-1-yl)acetic acid] | 1.2 | 3.5
3 | CCCC1(CC(=O)O)OCCc2c1[nH]c1c(C#N)ccc(C(F)(F)F)c21 (centres unmarked) [Example 276, (8-cyano-1-propyl-5-trifluoromethyl-1,3,4,9-tetrahydropyrano[3,4-b]indol-1-yl)acetic acid] | 1.3 | 1.7
4 | CCC(C)C1(CC(=O)O)OCCc2c1[nH]c1c(C(N)=O)ccc(C(F)(F)F)c21 [Example 278, (1R*,10S)-[8-aminocarbonyl-1-(1-methylpropyl)-5-trifluoromethyl-1,3,4,9-tetrahydropyrano[3,4-b]indol-1-yl]acetic acid] | 15 | 23
5 | Cc1ccc(C#N)c2c3c([nH]c12)C(CCC(F)(F)F)(CC(=O)O)OCC3 (centres unmarked) [Example 280, [5-cyano-8-methyl-1-(3,3,3-trifluoropropyl)-1,3,4,9-tetrahydropyrano[3,4-b]indol-1-yl]acetic acid] | 0.8 | 2
6 | COCC1(CC(=O)O)OCCc2c1[nH]c1c(C)ccc(C#N)c21 (centres unmarked) [Example 281, (5-cyano-1-methoxymethyl-8-methyl-1,3,4,9-tetrahydropyrano[3,4-b]indol-1-yl)acetic acid] | > 30 | > 30
7 | CSCC1(CC(=O)O)OCCc2c1[nH]c1c(C)ccc(C#N)c21 (centres unmarked) [Example 282, (5-cyano-1-methylthiomethyl-8-methyl-1,3,4,9-tetrahydropyrano[3,4-b]indol-1-yl)acetic acid] | 13 | 22
8 | Cc1ccc(C#N)c2c3c([nH]c12)C(CC(=O)O)(C1CC1)OCC3 (centres unmarked) [Example 283, (5-cyano-1-cyclopropyl-8-methyl-1,3,4,9-tetrahydropyrano[3,4-b]indol-1-yl)acetic acid] | 15 | > 27
9 | Cc1ccc(C#N)c2c3c([nH]c12)C(CC(=O)O)(C1CCC1)OCC3 (centres unmarked) [Example 284, (5-cyano-1-cyclobutyl-8-methyl-1,3,4,9-tetrahydropyrano[3,4-b]indol-1-yl)acetic acid] | 1 | 2.3
10 | Cc1ccc(C#N)c2c3c([nH]c12)[C@@](CC(=O)O)(C1CCC1)OCC3 [Example 285, (1R)-(5-cyano-1-cyclobutyl-8-methyl-1,3,4,9-tetrahydropyrano[3,4-b]indol-1-yl)acetic acid] | 0.4 | 1.1
11 | Cc1ccc(C#N)c2c3c([nH]c12)[C@](CC(=O)O)(C1CCC1)OCC3 [Example 286, (1S)-(5-cyano-1-cyclobutyl-8-methyl-1,3,4,9-tetrahydropyrano[3,4-b]indol-1-yl)acetic acid] | > 30 | > 30
12 | Cc1ccc(C#N)c2c3c([nH]c12)C(CC(=O)O)(C1CCCC1)OCC3 (centres unmarked) [Example 287, (5-cyano-1-cyclopentyl-8-methyl-1,3,4,9-tetrahydropyrano[3,4-b]indol-1-yl)acetic acid] | 5.1 | 6.5
13 | Cc1ccc(C#N)c2c3c([nH]c12)C(CC(=O)O)(CC1CCCC1)OCC3 (centres unmarked) [Example 288, (5-cyano-1-cyclopentylmethyl-8-methyl-1,3,4,9-tetrahydropyrano[3,4-b]indol-1-yl)acetic acid] | 22 | 18
14 | CC[C@H](C)[C@@]1(CC(=O)O)OCCc2c1[nH]c1c(C)ccc(C#N)c21 [Example 292, (1R,10S)-[5-cyano-8-methyl-1-(1-methylpropyl)-1,3,4,9-tetrahydropyrano[3,4-b]indol-1-yl]acetic acid] | 0.13 | 0.26
15 | CC[C@H](C)[C@]1(CC(=O)O)OCCc2c1[nH]c1c(C)ccc(C#N)c21 [Example 293, (1S,10S)-[5-cyano-8-methyl-1-(1-methylpropyl)-1,3,4,9-tetrahydropyrano[3,4-b]indol-1-yl]acetic acid] | > 30 | > 30
16 | CCCC1(CC(=O)O)OCCc2c1[nH]c1c(CC)ccc(C#N)c21 (centres unmarked) [Example 295, (5-cyano-8-ethyl-1-propyl-1,3,4,9-tetrahydropyrano[3,4-b]indol-1-yl)acetic acid] | 3.6 | 3.1
17 | CCCCC1(CC(=O)O)OCCc2c1[nH]c1c(CC)ccc(C#N)c21 (centres unmarked) [Example 296, (1-butyl-5-cyano-8-ethyl-1,3,4,9-tetrahydropyrano[3,4-b]indol-1-yl)acetic acid] | 7.2 | 6.3

Row | SMILES | IC50 [1] [µM] | IC50 [2] [µM]
18 | CCCC1(CC(=O)O)OCCc2c1[nH]c1c(C(C)C)ccc(C#N)c21 (centres unmarked) [Example 297, [5-cyano-8-(1-methylethyl)-1-propyl-1,3,4,9-tetrahydropyrano[3,4-b]indol-1-yl]acetic acid] | 1.8 | 2.8
19 | CCCC1(CC(=O)O)OCCc2c1[nH]c1c(C)ccc([N+](=O)[O-])c21 (centres unmarked) [Example 298, (8-methyl-5-nitro-1-propyl-1,3,4,9-tetrahydropyrano[3,4-b]indol-1-yl)acetic acid] | 0.3 | 0.5
20 | Cc1ccc([N+](=O)[O-])c2c3c([nH]c12)C(CC(=O)O)(C1CCC1)OCC3 (centres unmarked) [Example 299, (1-cyclobutyl-8-methyl-5-nitro-1,3,4,9-tetrahydropyrano[3,4-b]indol-1-yl]acetic acid] | 0.5 | 0.9
21 | N#Cc1ccc(F)c2[nH]c3c(c12)CCOC3(CCC(F)(F)F)CC(=O)O (centres unmarked) [Example 301, [5-cyano-8-fluoro-1-(3,3,3-trifluoropropyl)-1,3,4,9-tetrahydropyrano[3,4-b]indol-1-yl]acetic acid] | 5.4 | 11.3
22 | C=CCCC1(CC(=O)O)OCCc2c1[nH]c1c(F)ccc(C#N)c21 (centres unmarked) [Example 302, [1-(3-butenyl)-5-cyano-8-fluoro-1,3,4,9-tetrahydropyrano[3,4-b]indol-1-yl]acetic acid] | 4 | 18
23 | COCC1(CC(=O)O)OCCc2c1[nH]c1c(F)ccc(C#N)c21 (centres unmarked) [Example 303, (5-cyano-8-fluoro-1-methoxymethyl-1,3,4,9-tetrahydropyrano[3,4-b]indol-1-yl)acetic acid] | > 30 | > 30
24 | COCCC1(CC(=O)O)OCCc2c1[nH]c1c(F)ccc(C#N)c21 (centres unmarked) [Example 304, [5-cyano-8-fluoro-1-(2-methoxyethyl)-1,3,4,9-tetrahydropyrano[3,4-b]indol-1-yl]acetic acid] | > 30 | > 30
25 | CSCC1(CC(=O)O)OCCc2c1[nH]c1c(F)ccc(C#N)c21 (centres unmarked) [Example 305, (5-cyano-8-fluoro-1-methylthiomethyl-1,3,4,9-tetrahydropyrano[3,4-b]indol-1-yl)acetic acid] | > 30 | > 30
26 | N#Cc1ccc(F)c2[nH]c3c(c12)CCOC3(CC(=O)O)C1CC1 (centres unmarked) [Example 306, (5-cyano-1-cyclopropyl-8-fluoro-1,3,4,9-tetrahydropyrano[3,4-b]indol-1-yl)acetic acid] | > 30 | > 30
27 | N#Cc1ccc(F)c2[nH]c3c(c12)CCOC3(CC(=O)O)C1CCC1 (centres unmarked) [Example 307, (5-cyano-1-cyclobutyl-8-fluoro-1,3,4,9-tetrahydropyrano[3,4-b]indol-1-yl)acetic acid] | 5.8 | 9.6
28 | N#Cc1ccc(F)c2[nH]c3c(c12)CCOC3(CC(=O)O)C1CCCC1 (centres unmarked) [Example 308, (5-cyano-1-cyclopentyl-8-fluoro-1,3,4,9-tetrahydropyrano[3,4-b]indol-1-yl)acetic acid] | > 30 | > 30
29 | N#Cc1ccc(F)c2[nH]c3c(c12)CCOC3(CC(=O)O)CC1CCCC1 (centres unmarked) [Example 310, (5-cyano-1-cyclopentylmethyl-8-fluoro-1,3,4,9-tetrahydropyrano[3,4-b]indol-1-yl)acetic acid] | > 25 | > 25
30 | CC[C@H](C)[C@@]1(CC(=O)O)OCCc2c1[nH]c1c(F)ccc(C#N)c21 [Example 315, (1R,10S)-[5-cyano-8-fluoro-1-(1-methylpropyl)-1,3,4,9-tetrahydropyrano[3,4-b]indol-1-yl]acetic acid] | 0.4 | 2.1
31 | CC[C@H](C)[C@]1(CC(=O)O)OCCc2c1[nH]c1c(F)ccc(C#N)c21 [Example 316, (1S,10S)-[5-cyano-8-fluoro-1-(1-methylpropyl)-1,3,4,9-tetrahydropyrano[3,4-b]indol-1-yl]acetic acid] | > 30 | > 30
32 | Cc1cc(F)c(C#N)c2c3c([nH]c12)C(CC(=O)O)(C1CCC1)OCC3 (centres unmarked) [Example 317, (5-cyano-1-cyclobutyl-6-fluoro-8-methyl-1,3,4,9-tetrahydropyrano[3,4-b]indol-1-yl)acetic acid] | 0.6 | 0.9
33 | CC[C@H](C)[C@@]1(CC(=O)O)OCCc2c1[nH]c1c(C)cc(F)c(C#N)c21 [Example 319, (1R,10S)-[5-cyano-6-fluoro-8-methyl-1-(1-methylpropyl)-1,3,4,9-tetrahydropyrano[3,4-b]indol-1-yl]acetic acid] | 0.06 | 0.08
34 | CC[C@H](C)[C@]1(CC(=O)O)OCCc2c1[nH]c1c(C)cc(F)c(C#N)c21 [Example 320, (1S,10S)-[5-cyano-6-fluoro-8-methyl-1-(1-methylpropyl)-1,3,4,9tetrahydropyrano[3,4-b]indol-1-yl]acetic acid] | 2.9 | 6
